Where “and” joins values, the source holds several entries; their conditions need not be identical. Identical values can stand only once.
How the values were obtained:
Type in all cases: cell-based
[1] = test system: L. bellidifolium hypocotyl explants; assay: Induction of embryogenic calli from hypocotyl explants; conditions: medium containing 4% sucrose; 28 explants cultured
Method: (§1) Cotyledon and hypocotyl explants were dissected from 5-day old seedlings. The hypocotyls were cut 1 mm below the cotyledonary node and 1 mm above the hypocotyl-root junction to provide 2 mm-long explants. The cotyledons were separated from the cotyledon-petiole junction and halved into 2 to 3 mm long pieces. The explants were cultured, 10 per 100×15 mm Petri plate, on MS medium containing MS mineral salts, B5 vitamins (Gamborg et al. 1968), sucrose (2, 3 or 4% wt./v), 0.1 mg.l^−1 kinetin and 1, 2 or 5 mg.l^−1 2,4-D, pH 5.8. The plates were sealed with parafilm (American National Can, WI) and incubated at 25° C. under 16/8 h (day/night) light regime (PPFD 46 μmol.quanta.m^−2.s^−1, cool white fluorescent lamps). The explants were subcultured every two weeks on the same media.
(§2) Cotyledon explants from L. bellidifolium and L. sinuatum initiated callus within 7-10 days in culture on media containing 1 mg.l^−1 2,4-D and various levels of sucrose. Embryogenic callus was characterized by globular structures, smooth and shiny texture and creamy color. On media containing 1 mg.l^−1 2,4-D and 0.1 mg.l^−1 kinetin, increasing sucrose concentrations increased the induction of well developed embryogenic calli, 4% sucrose being the optimum (see the following Table 1). Some of the cotyledon explants respond with direct somatic embryogenesis without a callus phase. […]

[2] = test system: L. sinuatum hypocotyl explants; assay: as above; conditions: medium containing 4% sucrose; 21 explants cultured
Method: as §1, §2

[3] = test system: L. sinuatum cotyledon explants; assay: Induction of embryogenic calli from cotyledon explants; conditions: for Callus Description / % Response / Number of Explants responded/cultured: MS medium with 1 mg/l 2,4-D, 0.1 mg/l kinetin; for Callus Description / % Response: 30 days after culture; for % Response: mean of experiments; for Number of Explants responded/cultured: scored 30 days after culture, Exp.1 to 3
Method: (§3) Seeds of perennial statice Limoniurn bellidifolium (Gouan) Durmort.(Statice caspia Willd.) and annual statice Linonium sinuatum (L.) Mill. Cv. Soiree, and other Limonium species were purchased from Park Seed Co. (Greenwood, S.C., U.S.A.). Seeds were surface-sterilized by rinsing in 70% (v/v) ethanol for 30 seconds and in 10% (v/v) commercial bleach for 10 minutes. Following this treatment, they were washed five times in sterile distilled water and germinated under light on half-strength Murashige and Skoog basal medium (MS, Murashige and Skoog, 1962) containing 1.5% (wt./v) sucrose and 0.8% (wt./v) agar (Agar-agar, Sigma, St. Louis, Mo., U.S.A.). The pH was adjusted to 5.8 prior to autoclaving for 5 days to provide the explants.
as §1
(§4) Cotyledon explants from L. bellidifolium and L. sinuatum initiated callus within 7-10 days in culture on media containing 1 mg.l^−1 2,4-D and various levels of sucrose. Embryogenic callus was characterized by globular structures, smooth and shiny texture and creamy color. On media containing 1 mg.l^−1 2,4-D and 0.1 mg.l^−1 kinetin, increasing sucrose concentrations increased the induction of well developed embryogenic calli, 4% sucrose being the optimum (see the following Table 1). Some of the cotyledon explants respond with direct somatic embryogenesis without a callus phase. The embryogenic calli produced repetitive globular embryos on the same induction media for both species. Medium containing 4% sucrose was also optimum to induce embryogenic calli from hypocotyl explants (79% response for 28 explants cultured for L. bellidifolium and 86% response for 21 explants cultured for L. sinuatum). On an average, 2-3 somatic embryos developed per explant weekly. At 2% sucrose, friable non-embryogenic callus grew along with less defined embryogenic calli on the same explant.

[4] = test system: L. bellidifolium cotyledon explants; assay: as above; conditions: for Callus Description / % Response / Number of Explants responded/cultured: MS medium with 1 mg/l 2,4-D, 0.1 mg/l kinetin; for Callus Description / % Response: 30 days after culture; for % Response: mean of experiments; for Number of Explants responded/cultured: scored 30 days after culture, Exp.1 to 3
Method: as §3, §1, §4

[5] = test system: somatic embryos from embryogenic calli derived from L. bellidifolium and L. sinuatum cotyledon and hypocotyl explants; assay: Maturation and germination of somatic embryos from cultured embryogenic calli; parameters: key to Germination: − = No response; + slow (21-30 days); ++ medium (15-20 days); ++++- Fast (14 days) with 100% maturation and germination; conditions: for somatic embryo morphology: no growth regulators; for Germination / Maturation: MS medium
Method: For maturation, somatic embryos at late-globular, heart and torpedo stages were subcultured on MS media containing 3% or 4% (wt./v) sucrose with or without 0.1 mg.l^−1 kinetin. Calli differentiating globular embryos were transferred to maturation medium, MS supplemented with 3 or 4% sucrose and 0 or 0.1 mg.l^−1 kinetin. Late globular, heart, torpedo and cotyledonary stages differentiated in these media and with faster and higher response on media with 4% sucrose compared to that on 3% sucrose (see Table 2).
Supplementation of this medium with 0.1 mg/l kinetin induced embryo maturation and germination within 10 to 14 days of subculture compared to more than 21 days on media lacking kinetin.

[6] = media containing 1 mg/l 2,4-D and various levels of sucrose

SMILES: OC[C@H]1O[C@@](CO)(O[C@H]2O[C@H](CO)[C@@H](O)[C@H](O)[C@H]2O)[C@@H](O)[C@@H]1O [sucrose]
- response (induction of embryogenic calli) [1]: 79%
- response (induction of embryogenic calli) [2]: 86%
- Callus Description ([3]; 2% sucrose): W,E,F
- % Response ([3]; 2% sucrose): 72%
- Number of Explants responded/cultured ([3]; 2% sucrose): 12/19 and 38/44 and 13/20
- Callus Description ([3]; 3% sucrose): W/G,B(g,t)
- % Response ([3]; 3% sucrose): 79%
- Number of Explants responded/cultured ([3]; 3% sucrose): 50/61 and 49/74 and 61/69
- Callus Description ([3]; 4% sucrose): W/G,B(g,h,t)
- % Response ([3]; 4% sucrose): 88%
- Number of Explants responded/cultured ([3]; 4% sucrose): 42/48 and 32/39 and 37/40
- Callus Description ([4]; 2% sucrose): W,E,F
- % Response ([4]; 2% sucrose): 75%
- Number of Explants responded/cultured ([4]; 2% sucrose): 15/24 and 23/28 and 53/67
- Callus Description ([4]; 3% sucrose): W/G,E(g,t)
- % Response ([4]; 3% sucrose): 79%
- Number of Explants responded/cultured ([4]; 3% sucrose): 46/58 and 53/62 and 48/68
- Callus Description ([4]; 4% sucrose): W/G,E(g,h,t)
- % Response ([4]; 4% sucrose): 89%
- Number of Explants responded/cultured ([4]; 4% sucrose): 29/32 and 1/26 and 39/41
- somatic embryo morphology ([5]; 3% sucrose): abnormally long roots with poor shoot development
- Germination ([5]; 3% sucrose, kinetin 0.0 mg/l): −
- Maturation ([5]; 3% sucrose, kinetin 0.0 mg/l): + (+ slow (21-30 days))
- Germination ([5]; 3% sucrose, kinetin 0.1 mg/l): ++ (++ medium (15-20 days))
- Maturation ([5]; 3% sucrose, kinetin 0.1 mg/l): ++ (++ medium (15-20 days))
- Germination ([5]; 4% sucrose, kinetin 0.0 mg/l): + (+ slow (21-30 days))
- Maturation ([5]; 4% sucrose, kinetin 0.0 mg/l): ++ (++ medium (15-20 days))
- Germination ([5]; 4% sucrose, kinetin 0.1 mg/l): ++++ (++++- Fast (14 days) with 100% maturation and germination)
- Maturation ([5]; 4% sucrose, kinetin 0.1 mg/l): ++++ (++++- Fast (14 days) with 100% maturation and germination)
- somatic embryo morphology ([5]; sucrose increased to 4%): inhibited this abnormal rooting

SMILES: O=C(O)COc1ccc(Cl)cc1Cl [2,4-D, reference compound]
- time to callus initiation in culture [3, 6]: 7 to 10 days
- time to callus initiation in culture [4, 6]: 7 to 10 days

From patent publication US20020199220A1, “Methods to propagate plants via somatic embryogenesis and to transfer genes into ornamental statice and other members of the family plumbaginaceae” (priority 2001, published 2002)
